# Biological target: T1, Slo2.1 (Homo sapiens, UniProt Q6UVM3)
# T1 sequence (Q6UVM3 1-1135): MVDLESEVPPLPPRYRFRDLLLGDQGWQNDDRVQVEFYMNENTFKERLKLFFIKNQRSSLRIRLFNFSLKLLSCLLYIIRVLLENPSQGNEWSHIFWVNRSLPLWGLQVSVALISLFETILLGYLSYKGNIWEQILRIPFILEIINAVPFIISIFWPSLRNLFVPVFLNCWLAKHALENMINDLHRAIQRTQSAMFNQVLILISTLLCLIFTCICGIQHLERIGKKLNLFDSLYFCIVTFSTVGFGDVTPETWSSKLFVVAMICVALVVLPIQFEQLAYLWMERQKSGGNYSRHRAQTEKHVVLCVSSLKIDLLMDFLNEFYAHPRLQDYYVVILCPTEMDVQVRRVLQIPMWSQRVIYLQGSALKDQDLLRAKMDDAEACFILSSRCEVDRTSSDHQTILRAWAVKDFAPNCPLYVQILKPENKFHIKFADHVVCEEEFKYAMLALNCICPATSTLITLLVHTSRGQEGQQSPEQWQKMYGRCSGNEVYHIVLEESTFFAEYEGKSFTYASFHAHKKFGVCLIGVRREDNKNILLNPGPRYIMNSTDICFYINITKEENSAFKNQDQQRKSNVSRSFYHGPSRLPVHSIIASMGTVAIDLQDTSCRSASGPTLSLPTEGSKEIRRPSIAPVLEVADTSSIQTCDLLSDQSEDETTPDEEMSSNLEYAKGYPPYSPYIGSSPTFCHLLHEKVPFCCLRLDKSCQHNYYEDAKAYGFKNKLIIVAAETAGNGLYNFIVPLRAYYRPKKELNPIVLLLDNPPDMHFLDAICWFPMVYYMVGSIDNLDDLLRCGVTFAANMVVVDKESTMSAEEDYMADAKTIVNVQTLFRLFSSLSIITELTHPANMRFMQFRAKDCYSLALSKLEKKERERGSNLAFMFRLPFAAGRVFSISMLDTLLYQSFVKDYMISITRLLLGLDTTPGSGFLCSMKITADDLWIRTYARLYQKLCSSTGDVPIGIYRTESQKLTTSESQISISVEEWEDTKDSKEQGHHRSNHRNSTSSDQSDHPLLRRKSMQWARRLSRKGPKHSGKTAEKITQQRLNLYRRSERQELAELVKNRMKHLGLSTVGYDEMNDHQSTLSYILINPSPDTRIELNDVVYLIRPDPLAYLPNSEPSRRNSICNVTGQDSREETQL
# Experiment: Excised inside-out macropatch recordings of ISlo2.1 from oocytes
# Type: cell-based
# Details: 10 µM in bath (cytosolic) solution
structure (smiles),measurement,value
"CCCCCCCC(=O)OC[C@H](COP(=O)(O)O[C@@H]1[C@H](O)[C@H](O)[C@@H](OP(=O)(O)O)[C@H](OP(=O)(O)O)[C@H]1O)OC(=O)CCCCCCC [PI(4,5)P2 diC8, phosphatidylinositol 4,5-bisphosphate diC8]",effect on run-down of macroscopic ISlo2.1 in excised patches,preventable

# — paper PMC3813382 (The Journal of General Physiology, 2013)
